Measured values published in patent publication US20080015237A1 (ASTRAZENECA AB, priority 2006, published 2008).
pIC50: −log10 of the molar value.

Target: human Kv1.5 channel (Homo sapiens, UniProt P22460)
Assay: Test A: Rb+ efflux assay
Type: cell-based
Settings: CHO cells stably transfected with cDNA for human Kv1.5
Summary of the method: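 CHO cells stably expressing human Kv1.5, loaded with Rb+ buffer for 3-4 h at 37 °C, then washed and exposed to compound. Channels opened with elevated-K+ buffer; after a short incubation, Rb+ released into supernatant measured by flame atomic absorption spectroscopy.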

Chain of human Kv1.5 channel (P22460 whole entry): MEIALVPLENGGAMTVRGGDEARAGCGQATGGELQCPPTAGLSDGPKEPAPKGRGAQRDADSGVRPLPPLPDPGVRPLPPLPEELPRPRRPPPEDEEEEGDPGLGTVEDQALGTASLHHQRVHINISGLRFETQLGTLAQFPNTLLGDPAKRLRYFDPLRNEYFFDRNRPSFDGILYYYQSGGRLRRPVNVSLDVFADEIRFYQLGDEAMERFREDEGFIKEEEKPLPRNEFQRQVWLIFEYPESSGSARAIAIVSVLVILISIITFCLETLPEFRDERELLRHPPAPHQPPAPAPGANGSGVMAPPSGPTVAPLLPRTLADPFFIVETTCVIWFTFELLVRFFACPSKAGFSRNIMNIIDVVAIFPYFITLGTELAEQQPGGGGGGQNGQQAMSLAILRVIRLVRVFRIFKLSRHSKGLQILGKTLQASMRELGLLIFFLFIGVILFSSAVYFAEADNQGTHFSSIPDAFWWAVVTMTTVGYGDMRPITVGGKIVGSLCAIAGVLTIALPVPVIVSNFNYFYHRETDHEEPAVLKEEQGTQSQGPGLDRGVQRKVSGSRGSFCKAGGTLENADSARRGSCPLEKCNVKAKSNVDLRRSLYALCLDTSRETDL

Compound	pIC50
O=C(NCc1ccc(CNC(=O)C2c3ccccc3C(=O)N2Cc2ccccc2-c2ccccc2)cc1)C(F)F (stereo not drawn) [2-(biphenyl-2-ylmethyl)-N-(4-{[(difluoroacetyl)amino]methyl}benzyl)-3-oxoisoindoline-1-carboxamide]	5.62
CC(C)(C)NC(=O)C1c2ccccc2C(=O)N1Cc1ccccc1-c1ccc(F)c(F)c1 (stereo not drawn) [N-(tert-butyl)-2-[(3′,4′-difluorobiphenyl-2-yl)methyl]-3-oxoisoindoline-1-carboxamide]	5.66
CC(C)(C)NC(=O)C1c2ccccc2C(=O)N1Cc1ccccc1-c1ccc(F)c(F)c1 (single isomer, unassigned) [(1S or 1R)-N-(tert-butyl)-2-[(3′,4′-difluorobiphenyl-2-yl)methyl]-3-oxoisoindoline-1-carboxamide]	5.26

Molecules with a higher pIC50, results first:

pIC50	Compound
5.96	CC(C)(C)NC(=O)C1c2cc(Cl)ccc2C(=O)N1Cc1ccccc1C(F)(F)F (stereo not drawn) [N-(tert-butyl)-6-chloro-3-oxo-2-[2-(trifluoromethyl)benzyl]isoindoline-1-carboxamide]
6.00	O=C(NCc1ccccc1)C1c2ccccc2C(=O)N1Cc1cc(-c2ccccc2)no1 (stereo not drawn) [N-benzyl-3-oxo-2-[(3-phenylisoxazol-5-yl)methyl]isoindoline-1-carboxamide]
6.04	CC(CN1C(=O)c2ccc(Cl)cc2C1C(=O)NC(C)(C)C)c1ccc(Cl)cc1 (stereo not drawn) [N-(tert-butyl)-6-chloro-2-[2-(4-chlorophenyl)propyl]-3-oxoisoindoline-1-carboxamide]
